Values after ≈ are worked out from the molar mass of the structure shown.
Tests used:
C. albicans B4 = experiment: microbe, parasite or virus in culture; assay type: cell-based, Candida albicans; details: Candida albicans, B4, 48 h
Source text: (§1) The C. albicans CAF2-1 (Genotype/Description: ura3Δ::imm434/URA3[89]) and DSY1050 (Genotype/Description: cdr1Δ::hisG/cdr1Δ::hisG/cdr2Δ::hisG/cdr2Δ::hisG/mdr1Δ::hisG-URA3-hisG/mdr1Δ::hisG[90]) strains used in this study were generous gift from D. Sanglard (Lausanne, Switzerland)[91],[92] whereas C. albicans B3 and Gu4 (Genotype/Description: clinical isolates fluconazole sensitive)[93]), B4 (Genotype/Description: Clinical isolate fluconazole resistant due to the overexpression of MDR1[93]) and Gu5 (Genotype/Description: Clinical isolate fluconazole resistant due to the overexpression of CDR1 and CDR2[93]) were a generous gift from prof. S. Milewski (Gdańsk, Poland)[94] and prof. J. Morschhäuser (Wurzburg, Germany)[93]. All strains were grown at 37 °C on Sabouraud medium (Biomerieux).
(§2) The antifungal activity was determined on the 96-well polystyrene microtiter plates (Sarstedt) according to Clinical and Laboratory Standards Institute M27-A3[95]. […] The compounds were dissolved in DMSO (10 mM) and then serially diluted in RPMI-1640 (ThermoFisher) medium to obtain the final concentration range. Inocula of all strains were prepared as suspensions with turbidity of 0.5 McFarland standard in sterile 0.85% saline and diluted in RPMI-1640. After inoculation, each well contained appr. 5 × 10^2 CFU/mL. The plates were cultivated for 48 h at 37 °C. Optical density was measured at A490nm using a microplate reader ASYS UVM 340 (Biogenet).

C. albicans CAF2-1 [1] = experiment: microbe, parasite or virus in culture; assay type: cell-based, Candida albicans; details: Candida albicans, CAF21, 48 h
Source text: as §1, §2

C. albicans DSY1050 = experiment: microbe, parasite or virus in culture; assay type: cell-based, Candida albicans; details: Candida albicans, DSY1050, 48 h
Source text: as §1, §2

C. albicans Gu5 = experiment: microbe, parasite or virus in culture; assay type: cell-based, Candida albicans; details: Candida albicans, GU5, 48 h
Source text: as §1, §2

C. albicans B3 = experiment: microbe, parasite or virus in culture; assay type: cell-based; details: Candida albicans, B3, 48 h
Source text: as §1, §2

C. albicans Gu4 = experiment: microbe, parasite or virus in culture; assay type: cell-based; details: Candida albicans, GU4, 48 h
Source text: as §1, §2

C. albicans CAF2-1 [2] = experiment: microbe, parasite or virus in culture; assay type: cell-based, Candida albicans; details: Candida albicans, CAF21, read-out: Viability of C. albicans CAF2-1
Protocol: The synergistic effects of KeOP/KeP with Flc were determined using the M27-A3 method with modifications. Flc and KeOP/KeP stock solutions in DMSO (10 mM) were (alone and simultaneously) diluted in RPMI-1640 medium to obtain final concentrations of^1/8; ^1/4; ^1/2; 1 × MIC50 towards C. albicans CAF2-1 strain in microdilution sterile plates (Sarstedt). Statistical significance analysis was performed using Student’s t-test ([…], unpaired) comparing viability in the presence of corresponding Flc concentrations with/without KeOP/KeP.

[3] = system: hASCs (human adipose-derived stromal cells); experiment: Cytotoxicity IC50, TOX-8 resazurin assay, hASCs, 24 h; assay type: cell-based
Protocol: Human Adipose Tissue-derived Stem Cells (hASCs) were isolated from subcutaneous adipose tissue fragments harvested from non-diabetic female donors (age range 33–38, n = 2) during standard surgical procedure of total hip arthroplasty. Immediately after collection of tissue, the samples were placed in sterile tissue-transport medium (Hank’s Balanced Salt Solution (HBSS) supplemented with 1% Penicillin/Streptomycin/Amphotericin B solution (P/S/A). Mesenchymal stromal cell isolation was performed using enzymatic digestion of extracellular matrix with collagenase type I. Before digestion, tissue specimens were washed twice with HBSS and incubated in collagenase type I solution (1 mg/mL) at 37 °C for 40 min. The digest was subsequently centrifuged (1200 × g; 10 minutes; room temperature) and the cell pellet was resuspended in Dulbecco’s modified Eagle’s medium (DMEM) with Nutrient F-12 Ham, 10% of Fetal Bovine Serum (FBS), and 1% of P/S/A, transferred to a culture flask, and kept in culture under optimal conditions (37 °C in a humidified atmosphere of 5% CO2). The medium was refreshed every 2–3 days. At 80–90% confluence, the cells were passaged using trypsin solution (TrypLE Express, Life Technologies, California, USA). At passage 3, hASCs were collected and cellular phenotype was confirmed by the high expression of markers CD44, CD29, CD73, CD105 and low expression of CD45. Moreover, the trilineage differentiation capacity of ASCs was confirmed as previously described.
The IC50 values were determined using in vitro Toxicology TOX-8 Assay Kit (resazurin based) according to the manufacturer’s protocol. For this assay, cells were seeded in a 96-well plate at a density of 5 × 10^3 cells/well. The cells were pre-incubated in drug-free complete medium for 24 h before adding various concentrations of the compounds to be investigated. Stock solutions of the compounds were prepared in DMSO following serial dilutions in DMEM with Nutrient F-12 Ham complete medium. The cells exposure period was 24 h. After that time media were replaced with 10% v/v resazurin dye solution in fresh complete culture medium. Incubation was carried out for 2 h at 37 °C in the CO2 incubator. Reduction of the dye was measured spectrophotometrically at 600 nm and 690 nm reference wavelength (Epoch, Biotek). Absorbance measurements allowed the determination of viable treated cells relative to untreated controls using the inflection point of a dose-response graph. IC50 values were estimated as duplicates of triplicate readings in two independent experiments.

[4] = cited from earlier work

SMILES: OC(Cn1cncn1)(Cn1cncn1)c1ccc(F)cc1F [Flc, fluconazole, reference compound]
- MIC50 (C. albicans B4): 50 µM (≈ 15.3 µg/mL)
- MIC50 (C. albicans CAF2-1 [1]): 6.25 µM (≈ 1.91 µg/mL)
- MIC50 (C. albicans DSY1050): 0.78 µM (≈ 0.239 µg/mL)
- MIC50 (C. albicans Gu5): > 200 µM
- MIC50 (C. albicans B3): 6.25 µM (≈ 1.91 µg/mL)
- MIC50 (C. albicans Gu4): 6.25 µM (≈ 1.91 µg/mL)
- viability at 0.78 µM (C. albicans CAF2-1 [2]): 86.9 ± 7.84%
- viability at 1.56 µM (C. albicans CAF2-1 [2]): 71.3 ± 13.9%
- viability at 3.13 µM (C. albicans CAF2-1 [2]): 73.8 ± 4.35%
- viability at 6.25 µM (C. albicans CAF2-1 [2]): 38 ± 8.94%
- IC50 (cytotoxicity, hASCs viability) [3]: not cytotoxic in the tested concentration range
- fold less active in vitro than Ke [4]: approximately 16 fold

Source: PMC6838151 (Scientific Reports, 2019)
